The target of assay [1] is T1, human vanilloid-1 (hVR-1) in hVR-1-HEK293 cell line (Homo sapiens, UniProt Q8NER1).
T1 construct: expressed in transfected cells; host or cells: HEK293 Tet-on strain, doxycycline-induced
The experiment in a line: Inhibitory effect on calcium influx via a vanilloid receptor (capsaicin-stimulated, Fluo-3/AM). Type of assay: cell-based. The settings on record: hVR-1-HEK293 cells, 1 μM of capsaicin, compounds 0.015˜2000 nM; read-out: I.A. (inhibitory activity), IC50 on intracellular calcium influx. In a few lines:
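Doxycycline-induced (1 μg/mL, 2 days) hVR-1-HEK293 cells loaded with Fluo-3/AM for 90 min at 37° C, then stimulated with 1 μM capsaicin. Calcium influx expressed as background-corrected fluorescence relative to positive control, analysed by Hill equation and graded by activity criteria.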
For orientation: A change in cytosolic calcium serves as a functional read-out for many receptors and channels.

The test system of assay [2] is ICR male mice. Kind of assay: Phenyl-p-quinone (PBQ)-induced writhing experiment using mice. Type of assay: in vivo. The settings on record: orally administered, PBQ (0.02%) intraperitoneally after 1 hour, writhing counted for 10 min. A general note: In writhing tests, fewer writhes than in controls are read as antinociception.

The results in this text go back to US8362012B2, “Benzoxazine benzimidazole derivative, a pharmaceutical composition comprising the same, and a use thereof” (Daewoong Pharmaceutical Co., Ltd., priority 2008, dated 2013).

The IC50 is the concentration that gives 50% inhibition.

T1 sequence (Q8NER1 whole entry): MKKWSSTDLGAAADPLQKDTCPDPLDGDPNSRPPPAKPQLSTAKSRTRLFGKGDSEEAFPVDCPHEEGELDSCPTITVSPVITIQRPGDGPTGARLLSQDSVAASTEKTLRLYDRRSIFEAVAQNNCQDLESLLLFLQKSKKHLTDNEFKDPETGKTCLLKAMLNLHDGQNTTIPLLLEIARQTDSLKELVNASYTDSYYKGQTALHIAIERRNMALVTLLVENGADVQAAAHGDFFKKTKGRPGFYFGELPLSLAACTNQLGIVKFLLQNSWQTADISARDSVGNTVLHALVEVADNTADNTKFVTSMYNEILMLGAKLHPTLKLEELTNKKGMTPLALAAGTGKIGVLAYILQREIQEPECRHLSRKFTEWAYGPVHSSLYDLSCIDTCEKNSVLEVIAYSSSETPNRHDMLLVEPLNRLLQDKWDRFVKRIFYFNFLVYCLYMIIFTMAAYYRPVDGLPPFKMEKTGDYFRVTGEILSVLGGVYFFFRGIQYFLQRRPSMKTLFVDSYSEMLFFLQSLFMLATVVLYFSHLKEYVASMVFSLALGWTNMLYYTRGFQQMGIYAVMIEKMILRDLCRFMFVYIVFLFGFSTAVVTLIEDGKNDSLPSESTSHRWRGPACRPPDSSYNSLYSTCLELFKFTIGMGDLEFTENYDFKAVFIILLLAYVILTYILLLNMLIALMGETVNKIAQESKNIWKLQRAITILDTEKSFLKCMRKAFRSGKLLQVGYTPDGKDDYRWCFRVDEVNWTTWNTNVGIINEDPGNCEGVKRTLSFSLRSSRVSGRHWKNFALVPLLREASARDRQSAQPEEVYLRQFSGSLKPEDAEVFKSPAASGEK

Take `COC[C@H]1COc2c(-c3nc4c(Cl)cc(C(F)(F)F)cc4[nH]3)cccc2N1c1ccc(C)cn1` [Example 92, (S)-8-(4-chloro-6-trifluoromethyl-1H-benzimidazol-2-yl)-3-methoxymethyl-4-(5-methyl-pyridin-2-yl)-3,4-dihydro-2H-benzo[1,4]oxazine]: in assay [1], the IC50 was below 20 nM. For the same compound, in assay [2], the “I.A. (inhibitory activity), % inhibition rate of writhing” value is on record as “++ (20˜50%)”.
With `COC[C@H]1COc2c(-c3nc4c(Br)cc(C(F)(F)F)cc4[nH]3)cccc2N1c1ccc(C)cn1` [Example 93, (S)-8-(4-bromo-6-trifluoromethyl-1H-benzimidazol-2-yl)-3-methoxymethyl-4-(5-methyl-pyridin-2-yl)-3,4-dihydro-2H-benzo[1,4]oxazine], the IC50 in assay [1] was below 20 nM. In assay [2], the “I.A. (inhibitory activity), % inhibition rate of writhing” value is “++ (20˜50%)”.
The matching figures for `COC[C@H]1COc2c(-c3nc4c(F)cc(Br)cc4[nH]3)cccc2N1c1ccc(C)cn1` [Example 94, (S)-8-(6-bromo-4-fluoro-1H-benzimidazol-2-yl)-3-methoxymethyl-4-(5-methyl-pyridin-2-yl)-3,4-dihydro-2H-benzo[1,4]oxazine]: below 20 nM and “+++ (51-80%)”.
On the same counts, the results for `COC[C@H]1COc2c(-c3nc4cc(Cl)c(Cl)cc4[nH]3)cccc2N1c1ccc(C)cn1` [Example 95, (S)-8-(5,6-dichloro-1H-benzimidazol-2-yl)-3-methoxymethyl-4-(5-methyl-pyridin-2-yl)-3,4-dihydro-2H-benzo[1,4]oxazine] are below 20 nM and “+++ (51-80%)”.
The matching figures for `COC[C@H]1COc2c(-c3nc4c(C(F)(F)F)cc(C(F)(F)F)cc4[nH]3)cccc2N1c1ccc(C)cn1` [Example 96, (S)-8-(4,6-bis-trifluoromethyl-1H-benzimidazol-2-yl)-3-methoxymethyl-4-(5-methyl-pyridin-2-yl)-3,4-dihydro-2H-benzo[1,4]oxazine]: below 20 nM and “++++ (>80%)”.
Regarding `COC[C@H]1COc2c(-c3nc4c(Br)cc(Br)cc4[nH]3)cccc2N1c1ccc(C)cn1` [Example 97, (S)-8-(4,6-dibromo-1H-benzimidazol-2-yl)-3-methoxymethyl-4-(5-methyl-pyridin-2-yl)-3,4-dihydro-2H-benzo[1,4]oxazine], the IC50 in assay [1] is below 20 nM. Further, the “I.A. (inhibitory activity), % inhibition rate of writhing” value in assay [2] is listed as “++ (20˜50%)”.
Turning to `COC[C@H]1COc2c(-c3nc4ccc(F)cc4[nH]3)cccc2N1c1ccc(C)cn1` [Example 98, (S)-8-(6-fluoro-1H-benzimidazol-2-yl)-3-methoxymethyl-4-(5-methyl-pyridin-2-yl)-3,4-dihydro-2H-benzo[1,4]oxazine], the IC50 in assay [1] fell in the range of 20 to 100 nM. Further, the “I.A. (inhibitory activity), % inhibition rate of writhing” value in assay [2] is recorded as “++ (20˜50%)”.
On the same counts, the results for `COC[C@H]1COc2c(-c3nc4ccc(OC(F)(F)F)cc4[nH]3)cccc2N1c1ccc(C)cn1` [Example 99, (S)-3-methoxymethyl-4-(5-methyl-pyridin-2-yl)-8-(6-trifluoromethoxy-1H-benzimidazol-2-yl)-3,4-dihydro-2H-benzo[1,4]oxazine] are 20 to 100 nM and “++++ (>80%)”.
Turning to `COC[C@H]1COc2c(-c3nc4ccc(C)c(C)c4[nH]3)cccc2N1c1ccc(C)cn1` [Example 100, (S)-8-(6,7-dimethyl-1H-benzimidazol-2-yl)-3-methoxymethyl-4-(5-methyl-pyridin-2-yl)-3,4-dihydro-2H-benzo[1,4]oxazine], in assay [1], the IC50 is 20 to 100 nM. Further, in assay [2], the “I.A. (inhibitory activity), % inhibition rate of writhing” value is reported as “++ (20˜50%)”.
On the same counts, the results for `COC[C@H]1COc2c(-c3nc4ccc(C#N)cc4[nH]3)cccc2N1c1ccc(C)cn1` [Example 101, 2-[(S)-3-methoxymethyl-4-(5-methyl-pyridin-2-yl)-3,4-dihydro-2H-benzo[1,4]oxazin-8-yl]-3H-benzimidazol-5-carbonitrile] are 20 to 100 nM and “+++ (51-80%)”.
The matching figures for `COC[C@H]1COc2c(-c3nc4cc(F)c(F)cc4[nH]3)cccc2N1c1ccc(C)cn1` [Example 102, (S)-8-(5,6-difluoro-1H-benzimidazol-2-yl)-3-methoxymethyl-4-(5-methyl-pyridin-2-yl)-3,4-dihydro-2H-benzo[1,4]oxazine]: below 20 nM and “+++ (51-80%)”.
With `COC[C@H]1COc2c(-c3nc4cc(Cl)c(F)cc4[nH]3)cccc2N1c1ccc(C)cn1` [Example 103, (S)-8-(5-chloro-6-fluoro-1H-benzimidazol-2-yl)-3-methoxymethyl-4-(5-methyl-pyridin-2-yl)-3,4-dihydro-2H-benzo[1,4]oxazine], in assay [1], the IC50 was below 20 nM. Also, the “I.A. (inhibitory activity), % inhibition rate of writhing” value in assay [2] was “+++ (51-80%)”.
As for `COC[C@H]1COc2c(-c3nc4c(C)cc(Br)cc4[nH]3)cccc2N1c1ccc(C)cn1` [Example 104, (S)-8-(6-bromo-4-methyl-1H-benzimidazol-2-yl)-3-methoxymethyl-4-(5-methyl-pyridin-2-yl)-3,4-dihydro-2H-benzo[1,4]oxazine], the IC50 in assay [1] is below 20 nM. The “I.A. (inhibitory activity), % inhibition rate of writhing” value in assay [2] is “+++ (51-80%)”.
